By EC50 is commonly meant the midpoint of the concentration-response curve. Usually pEC50 stands for the negative decadic logarithm of the EC50, by convention in mol/L.

pEC50: −log10 of the molar value. Read-outs that look alike come from different tables or passages of the source.

Drawing on US20250296936A1, “SARS-COV2 MAIN PROTEASE INHIBITORS” (Gilead Sciences, Inc., priority 2024, published 2025), this text covers EC50 for 26 compounds.

The subject of the assay is SARS-CoV-2-NLuc in A549-hACE2 cells. In words: microbe, parasite or virus in culture. The format is cell-based, SARS Coronavirus 2. The note with it: for EC50: read-out: MPro EC50 (nM); for pEC50: read-out: MPro EC50.
[1] abbreviates: Severe acute respiratory syndrome coronavirus, 48 h.

As for `Cc1cncc(-n2c(=O)c3oc(-c4ccccc4Cl)cc3n(CC3(C#N)CC3)c2=O)c1` [Example 53], the EC50 under setting [1] stood at 12.8 nM.

Take `COc1cc(-c2cc3[nH]c(=O)n(-c4cncc(C)c4)c(=O)c3o2)c(Cl)cc1F` [Example 56]: under setting [1], the EC50 came out at 195 nM. The same measure, in the same setting: as for `Cn1ncc2cncc(-n3c(=O)c4oc(-c5ccc(F)cc5Cl)cc4n(CCC#N)c3=O)c21` [Example 24], the figure is 71.4 nM.

Consider `COc1cc(-c2cc3[nH]c(=O)n(-c4cncc5cccnc45)c(=O)c3o2)c(Cl)cc1F` [Example 55, 6-(2-chloro-4-fluoro-5-methoxyphenyl)-3-(1,6-naphthyridin-8-yl)furo[3,2-d]pyrimidine-2,4(1H,3H)-dione], for which the pEC50 under setting [1] was 6.60. Consider `COc1ccc2cncc(-n3c(=O)c4oc(-c5ccccc5Cl)cc4n(C)c3=O)c2c1` [Example 32], for which the concentration for a half-maximal effect (EC50) under setting [1] was found to be 381 nM. The same measure, in the same setting: under `N#CCCn1c(=O)n(-c2cncc3ccc(F)cc23)c(=O)c2oc(-c3ccccc3Cl)cc21` [Example 22] stands 19 nM; under `Cn1c(=O)n(-c2cncc3ccccc23)c(=O)c2oc(-c3ccc(F)cc3Cl)cc21` [Example 36], 3270 nM. The same measure, in the same setting: under `Cn1ncc2cncc(-n3c(=O)c4oc(-c5ccccc5Cl)cc4n(CCC#N)c3=O)c21` [Example 18] stands 27.8 nM; under `COc1cc(-c2cc3c(o2)c(=O)n(-c2cncc4cnn(C)c24)c(=O)n3CC#N)c(Cl)cc1F` [Example 39], 50.7 nM.

Take `Cn1ncc2cncc(-n3c(=O)c4oc(-c5ccccc5Cl)cc4n(CCC#N)c3=O)c21` (single isomer, unassigned) [Example 61, 3-[6-(2-chlorophenyl)-3-(1-methylpyrazolo[4,3-c]pyridin-7-yl)-2,4-dioxo-furo[3,2-d]pyrimidin-1-yl]propanenitrile]: the pEC50 is 8.15. With `COc1cc(-c2cc3[nH]c(=O)n(-c4cnnc(C)c4)c(=O)c3o2)c(Cl)cc1F` [Example 12], under setting [1], the half-maximal effective concentration (EC50) is greater than 10000 nM. Turning to `Cn1c(=O)n(-c2cncc3ccccc23)c(=O)c2cc(-c3ccccc3Cl)oc21` [Example 33], the EC50 under setting [1] was 145 nM. Still for that read-out and setting: as for `N#CCn1c(=O)n(-c2cncc3ccccc23)c(=O)c2oc(-c3ccc(F)cc3Cl)cc21` [Example 46], the figure is 58.4 nM. Take `COc1cc(-c2cc3c(o2)c(=O)n(-c2cncc4ccccc24)c(=O)n3CCC#N)c(Cl)cc1F` (single isomer, unassigned) [Example 60, 3-[6-(2-chloro-4-fluoro-5-methoxy-phenyl)-3-(4-isoquinolyl)-2,4-dioxo-furo[3,2-d]pyrimidin-1-yl]propanenitrile]: the negative-log EC50 (pEC50) is 7.08. Turning to `COc1cc(-c2cc3c(o2)c(=O)n(-c2cncc4cnn(C)c24)c(=O)n3CCC#N)c(Cl)cc1F` (single isomer, unassigned) [Example 63, 3-[6-(2-chloro-4-fluoro-5-methoxy-phenyl)-3-(1-methylpyrazolo[4,3-c]pyridin-7-yl)-2,4-dioxo-furo[3,2-d]pyrimidin-1-yl]propanenitrile], the negative-log EC50 (pEC50) was 8.20. Consider `COc1cc(-c2cc3c(o2)c(=O)n(-c2cccnn2)c(=O)n3CCC#N)c(Cl)cc1F` [Example 26], for which the half-maximal effective concentration (EC50) under setting [1] is 408 nM. The same measure, in the same setting: under `N#CCn1c(=O)n(-c2cncc3ccc(F)cc23)c(=O)c2oc(-c3ccccc3Cl)cc21` [Example 43] stands 25.3 nM. Turning to `COc1cc(-c2cc3c(o2)c(=O)n(-c2cncc4ccccc24)c(=O)n3CCC#N)c(Cl)cc1F` [Example 16, 3-(6-(2-chloro-4-fluoro-5-methoxyphenyl)-3-(isoquinolin-4-yl)-2,4-dioxo-3,4-dihydrofuro[3,2-d]pyrimidin-1(2H1)-yl)propanenitrile], the negative-log EC50 (pEC50) under setting [1] was 8.36. For `N#CC1(Cn2c(=O)n(-c3cncc4ccccc34)c(=O)c3oc(-c4ccccc4Cl)cc32)CC1` [Example 50], under setting [1], the EC50 worked out at 6.99 nM. In the case of `N#CCCn1c(=O)n(-c2cncc3c2CCCC3)c(=O)c2oc(-c3ccccc3Cl)cc21` [Example 21], the EC50 under setting [1] turned out to be 29.6 nM. As for `COc1cc(-c2cc3c(o2)c(=O)n(-c2cncc4ccccc24)c(=O)n3C)c(Cl)cc1F` [Example 28, 6-(2-chloro-4-fluoro-5-methoxy-phenyl)-3-(4-isoquinolyl)-1-methyl-furo[3,2-d]pyrimidine-2,4-dione], the pEC50 under setting [1] is 6.54. Turning to `Cn1c(=O)n(-c2cncc3ccccc23)c(=O)c2oc(-c3ccccc3Cl)cc21` [Example 31], under setting [1], the concentration for a half-maximal effect (EC50) was 565 nM.

Take `O=c1[nH]c2oc(-c3ccccc3)nc2c(=O)n1-c1cncc2ccccc12` [Example 13]: the half-maximal effective concentration (EC50) under setting [1] was determined as 4240 nM. The same measure, in the same setting: as for `COc1ccc2cncc(-n3c(=O)c4oc(-c5ccccc5Cl)cc4n(CC4(C#N)CC4)c3=O)c2c1` [Example 51], the figure is 12.1 nM; as for `Cc1cncc(-n2c(=O)c3oc(-c4ccccc4Cl)cc3n(C)c2=O)c1` [Example 35], 726 nM; as for `COc1ccc2cncc(-n3c(=O)c4oc(-c5ccccc5Cl)cc4n(CCC#N)c3=O)c2c1` [Example 20], 17.1 nM.
